# Test results as given in US11246818B2, “Peptides and compositions for use in cosmetics” (LIPOTRUE, S.L., priority 2017, dated 2022).
# Residues, ends and D or L forms follow the SMILES beside them.
# How the values were obtained:
# [1] = system: HEKa cells; experiment: Modulation of the expression of antioxidant genes (RTqPCR); type: cell-based, human; conditions: 0.05 mg/mL, 24 hours
# Excerpt: Changes in gene expression levels are represented as a positive or negative fold-change with regard to the basal control (untreated cells). Bars from top to bottom in the y-axis refer to: CYP2R1 (Vitamin D 25-hydroxylase), NFE2L2 (Nuclear factor-like 2), HMOX1 (Heme oxygenase-1), GSTP1 (Glutathione S-transferase P), GSS (Glutathione synthetase), GPX1 (Glutathione peroxidase) and TRX (Thioredoxin). The x-axis refers to fold change versus or with regard to the basal control.
# Briefly, HEKa cells were seeded in duplicate in 6-well plates at a density of 4×10^5 cells/well and maintained at standard culture conditions (37° C., 95% humidity, 5% CO2) for 24 hours. Then, cells were treated with non-cytotoxic concentrations of Ac-SEQ ID NO: 1-NH2 (0.05 mg/mL) for an additional 24 hours.
# Untreated cells were used as basal control. Cells were then lysed for RNA extraction with a RNA purification commercial kit following manufacturer instructions (RNeasy mini kit; Qiagen; Netherlands). RNA was then quantified by nanodrop, adjusted in concentration and processed for retrotranscription to cDNA using a commercially available kit (High-Capacity cDNA Reverse Transcription kit; Thermofisher Scientific, USA). Resulting cDNA was used to perform a RTqPCR (Real Time Quantitative Polymerase Chain Reaction) using Taqman technology and a panel of probes designed to target specific genes related to melanogenesis and HEMn-HEKa and HEMn-HDFa communication.
# [2] = system: AhR; experiment: AhR immunostaining on human skin explants exposed to pollutants; conditions: composition of Example 8 applied topically, versus pollutants without peptide
# Protocol: (§1) The protection efficacy of peptide Ac-SEQ ID NO: 1-NH2 against pollution aggression on human living explants was assessed by observation of the general morphology, immunostaining of AhR and HO-1 (both are known markers of oxidative stress as they have been related to anti-oxidative response) (Esser C., Bargen I., Weighardt H., Haarmann-Stemmann T., Krutmann J., Functions of the aryl hydrocarbon receptor in the skin, Semin Immunopathol (2013) 35:677-691; Kohen R., Nyska A., Oxidation of Biological Systems: Oxidative Stress Phenomena, Antioxidants, Redox Reactions, and Methods for Their Quantification, Toxicologic Pathology (2002) vol 30, no 6, 620-650).
# (§2) Briefly, human skin explants from a person were put in culture under controlled conditions. 21 skin explants of an average diameter of 11 mm (±1 mm) were prepared and kept in survival in BEM culture medium at 37° C. in a humid, 5% CO2 atmosphere. The explants were distributed in 5 batches: explant control (Time=0), control batch, explants treated with the above-mentioned peptide, explants treated with pollutant and explants treated with pollutant and with the above-mentioned peptide. A composition containing Ac-SEQ ID NO: 1-NH2 in accordance with Example 8 was prepared and it was topically applied on days 0, 1, 3 and 4. […] Finally, image analyses and quantification were performed using Cell^D software (Olympus, Tokyo, Japan).
# [3] = system: HO-1; experiment: HO-1 immunostaining on human skin explants
# Protocol: as §1, §2
smiles,measurement,setting,value
"CC(=O)N[C@@H](CC(=O)O)C(=O)N[C@@H](Cc1ccc(O)cc1)C(=O)N[C@@H](CCCCN)C(=O)N[C@H](C(N)=O)C(C)C [Ac-SEQ ID NO: 1-NH2, Ac-Asp-Tyr-Lys-Val-NH2] (Ac-DYKV-NH2)","CYP2R1 gene expression, fold change versus basal control",[1],1.44 fold change
same,"GPX1 gene expression, fold change versus basal control",[1],1.22 fold change
same,"GSS gene expression, fold change versus basal control",[1],1.10 fold change
same,"GSTP1 gene expression, fold change versus basal control",[1],1.13 fold change
same,"HMOX1 gene expression, fold change versus basal control",[1],1.48 fold change
same,"NFE2L2 gene expression, fold change versus basal control",[1],1.23 fold change
same,"TRX gene expression, fold change versus basal control",[1],1.34 fold change
same,decrease in AhR (epidermal surface occupied),[2],16%
same,decrease in HO-1 (epidermal surface occupied),"[3]; composition of Example 8 applied topically, exposed to pollutants, versus pollutants without peptide",23%
same,increase of levels of HO-1,"[3]; peptide in a final formulation, without exposure to pollutants, versus untreated and unexposed explants",69%
